# Test results: publication PMC3804605, “Expression and Antimicrobial Function of Beta-Defensin 1 in the Lower Urinary Tract” (PLoS ONE, 2013)
# B1: RNase 7: Recombinant human RNase 7, used to verify sensitivity of UTI89 to killing by antimicrobial peptides (protein, UniProt Q9H1E1 29-156, looked up)
# Ribonuclease 7: KPKGMTSSQWFKIQHMQPSPQACNSAMKNINKHTKRCKDLNTFLHEPFSSVAATCQTPKIACKNGDKNCHQSHGAVSLTMCKLTSGKHPNCRYKEKRQNKSYVVACKPPQKKDSQQFHLVPVHLDRVL
# System: UPEC strain UTI89
# Test: Microdilution bactericidal assay of recombinant antimicrobial peptides (CFU count, MIC)
# Type: cell-based, Escherichia coli
# Details: for minimum inhibition concentration (MIC), lowest peptide concentration inhibiting growth of 90% of the inoculum: UTI89 10^5 CFU, 0.3125-10 µM peptide in 50 µl 0.1X PBS, 3 hours at 37°C, then plated overnight on LB, CFU versus untreated bacteria; for bactericidal activity toward UPEC in vitro (in words): UTI89, recombinant peptide, microdilution assay
# Experimental: Recombinant mBD-3 was synthesized in E. coli (5987-BD, R&D Systems, Minneapolis, MN). Recombinant mBD-14 was synthesized as a mature peptide in E. coli and purified as described. Antimicrobial activity of recombinant peptides was evaluated by microdilution assay. Briefly, UTI89 bacteria (10^5 CFU) were incubated with 0.3125, 0.625, 1.25, 2.5, 5, or 10 µM of mBD-3 or mBD-14 in 50 µl 0.1X PBS buffer for 3 hours at 37°C, then plated overnight on LB at 37°C. Next, the number of CFU at each concentration of peptide was determined. Using untreated bacteria as baseline, the minimum inhibition concentration (MIC) was identified by the lowest peptide concentration inhibiting growth of 90% of the inoculum as described previously. Sensitivity of the UTI89 bacterial strain to killing by antimicrobial peptides was verified with the use of recombinant human RNase 7, yielding MIC of 0.2-0.4 µM, consistent with published data[24].
Molecule,"minimum inhibition concentration (MIC), lowest peptide concentration inhibiting growth of 90% of the inoculum [µM]",bactericidal activity toward UPEC in vitro (in words)
"mBD-3: Recombinant mBD-3 synthesized in E. coli (5987-BD, R&D Systems); protein encoded by Defb3 (KKINNPVSCLRKGGRCWNRCIGNTRQIGSCGVPFLKCCKRK; UniProt Q9WTL0 23-63, looked up)",1.25 to 2.5,dose-dependent bactericidal activity
"mBD-14: Recombinant mBD-14 synthesized as a mature peptide in E. coli and purified; protein encoded by Defb14 (FLPKTLRKFFCRIRGGRCAVLNCLGKEEQIGRCSNSGRKCCRKKK; UniProt Q7TNV9 23-67, looked up)",,dose-dependent bactericidal activity
B1,0.2 to 0.4,
